Measurements reported in PubChem BioAssay (NCI).
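Cultured in 96-well plates, cells were exposed to test compound for 48 hours across five concentrations. Abbreviation: GI50, concentration required for 50% inhibition of growth. Definition used: TGI = concentration required for complete inhibition of growth.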

Experiments:
Assay in all cases: NCI-60 cell line screen, 48 h
[1] = tested on: HOP-92 NSCLC
[2] = tested on: M14 melanoma
[3] = tested on: HCT-15 colon
[4] = tested on: LOX IMVI melanoma
[5] = tested on: UACC-257 melanoma
[6] = tested on: HCC-2998 colon
[7] = tested on: IGROV1 ovarian
[8] = tested on: HT29 colon
[9] = tested on: OVCAR-5 ovarian
[10] = tested on: SF-295 CNS

| Structure (SMILES) | GI50 [1] [µM] | TGI [1] [µM] | GI50 [2] [µM] | TGI [2] [µM] | GI50 [3] [µM] | TGI [3] [µM] | GI50 [4] [µM] | TGI [4] [µM] | GI50 [5] [µM] | TGI [5] [µM] | GI50 [6] [µM] | TGI [6] [µM] | GI50 [7] [µM] | TGI [7] [µM] | GI50 [8] [µM] | TGI [8] [µM] | GI50 [9] [µM] | TGI [9] [µM] | GI50 [10] [µM] | TGI [10] [µM] |
| --- | --- | --- | --- | --- | --- | --- | --- | --- | --- | --- | --- | --- | --- | --- | --- | --- | --- | --- | --- | --- |
| COCCn1cc(-c2csc(-c3c[nH]c4ccc(Br)cc34)n2)c2cccnc21 | 4.39 | 30.7 | 3.27 | 60.2 | 3.14 | > 100 | 2.67 | > 100 | 8.69 | 64.2 | 3.8 | > 100 | 4.06 | > 100 | 3.36 | > 100 | 4.83 | > 100 | 2.83 | > 100 |
| COc1cc2c(cc1C)NC(=O)/C2=C\c1c[nH]c2ccccc12 | 10.2 | 29.9 | 12.7 | 46.1 | 7.16 | 25.4 | 11.4 | 29.3 | 21.9 | 43.8 | 21.7 | 71.1 | 4.44 | 33.6 | 5.27 | 55.9 | 13.5 | 42.7 | 6.28 | 38 |
| CN(C)c1ccc2nc(CC(O)(C(F)(F)F)C(F)(F)F)ccc2c1 | – | > 10 | – | > 10 | – | > 10 | – | > 10 | – | > 10 | – | > 10 | – | > 10 | – | > 10 | – | > 10 | – | > 10 |
| O=C(O[C@H]1CCN2C[C@H]3C[C@H](CN4C(=O)CCC[C@H]34)[C@@H]2C1)c1ccc(O)cc1 | – | > 100 | – | > 100 | – | > 100 | – | > 100 | – | > 100 | – | > 100 | – | > 100 | – | > 100 | – | > 100 | – | > 100 |
| Cc1ccc(S(=O)(=O)N2CCc3ccc(O)c4c3C2Cc2ccc3c(c2-4)OCO3)cc1 (stereo not given) | 0.417 | 3.51 | 0.511 | 3.86 | 0.583 | > 35.1 | 0.635 | 4.68 | 0.656 | 18.1 | 1.56 | 5.24 | 0.708 | 14.2 | 2.79 | 7.25 | 3.19 | 45.8 | 1.38 | 12 |
| COc1ccc(OC)c(/C=C/c2nc(SCc3ccccc3)n(-c3ccc(Cl)cc3)n2)c1 | > 100 | > 100 | 4.22 | > 100 | 5.01 | > 100 | 2.89 | > 100 | > 100 | > 100 | 8.24 | > 100 | 13.1 | > 100 | 3.93 | 21.5 | > 100 | > 100 | 3.5 | 36.6 |
| C/C(=N/N=C(N)N)c1ccc(NC(=O)Nc2ccc(/C(C)=N/N=C(N)N)cc2)cc1 | 14.2 | 33.8 | 35.7 | > 75.1 | 25.5 | > 77.6 | 21.5 | > 70.1 | 31.1 | > 89.6 | 23.4 | 81.5 | 7.47 | 23.9 | 27.3 | > 100 | 17.9 | 56.6 | 12.4 | 28.4 |
| Nc1ccc(Sc2c3ccccc3nc3ccccc23)cc1 | – | > 38 | – | 30.1 | – | 36.7 | – | 13.9 | – | 33.1 | – | 59.5 | – | 37.6 | – | 32 | – | 52 | – | 47.5 |
| CSc1ccc(C(=O)/C=C/c2ccccc2Cl)cc1 | 15.5 | 32 | 16.6 | 36.1 | 7.73 | 28.9 | 6.08 | 19.2 | 15.2 | 29.3 | 13.1 | 28.7 | 4.56 | 17 | 21.2 | > 100 | 16.1 | 31.6 | 16.1 | 33.1 |
| CCOC1CC2OC(=O)C1C=C2C(=O)OC (stereo not given) | – | 73.1 | – | 38.6 | – | > 100 | – | > 100 | – | 74.2 | – | > 100 | – | > 100 | – | > 100 | – | > 100 | – | > 100 |
| FC(F)(F)c1cc(Nc2ccc3cc(OCCCN4CCOCC4)ccc3n2)ccc1Cl | 1.15 | 2.97 | 1.71 | 3.66 | 1.28 | 3.08 | 1.53 | 2.99 | 1.53 | 3.32 | 1.74 | 3.38 | 2.62 | 7.49 | 1.59 | 3.16 | 2.21 | 5.84 | 1.37 | 3.17 |
| CCC[CH2][Pb]([Cl])([CH2]CCC)[CH2]CCC | 0.058 | 0.196 | 0.0192 | 0.0417 | 0.0195 | 0.0487 | 0.0223 | 0.045 | 0.0589 | 0.157 | 0.0439 | 0.136 | 0.0603 | 0.179 | 0.0252 | 0.0645 | 0.034 | 0.134 | 0.13 | 0.26 |
| Cc1ccc2nc(NC(=O)/C(=N\NC(=S)NN)C3C(=O)NC(=S)NC3=O)sc2c1 | – | > 100 | – | > 100 | – | > 100 | – | > 100 | – | > 100 | – | > 100 | – | > 100 | – | > 100 | – | > 100 | – | > 100 |
| Cc1cc(Cl)ccc1NC(=O)C(=O)C(C(=O)c1ccccc1)C1OC(=O)c2ccccc21 (stereo not given) | – | > 100 | – | > 100 | – | > 100 | – | > 100 | – | > 100 | – | > 100 | – | > 100 | – | > 100 | – | > 100 | – | > 100 |
| Nc1ncnc2c1ccn2[C@@H]1O[C@H]([C@H](O)c2ccc(Cl)c(F)c2)[C@@H](O)[C@H]1O | > 100 | > 100 | > 100 | > 100 | > 100 | > 100 | > 100 | > 100 | > 100 | > 100 | > 100 | > 100 | 48.6 | > 100 | 36 | > 100 | > 100 | > 100 | > 100 | > 100 |
